{
  "source": "patent EP4778929A1",
  "about": "“NOVEL TYPE I TOPOISOMERASE INHIBITOR, AND PREPARATION METHOD THEREFOR AND USE THEREOF” (priority 2023, dated 2025)",
  "key": {"HCT116 cells": {"test_system": "HCT116 cells", "assay": "Inhibition of cell proliferation by CTG (CellTiter-Glo) luminescence assay", "format": "cell-based", "conditions": "Homo sapiens, HCT-116; 72 h incubation, CellTiter-Glo; read-out: HCT116, IC50", "excerpt": "Test Example 2. Determination of Compound-Mediated Inhibition of Cell Proliferation by CTG (CellTiter-Glo) Luminescence Assay\nPrinciple: The Promega CellTiter-Glo™ luciferase reagent was used. Luciferase consumes ATP to generate light; metabolically active cells continuously produce ATP through respiration and other processes. After adding an equal volume of CellTiter-Glo™ reagent to the culture medium, the resulting luminescence is directly proportional to the ATP content, which in turn correlates with the number of viable cells. Thus, the assay quantifies compound-induced suppression of cell proliferation.\nExperimental Procedure: HCT116 cells (ATCC) were revived in complete medium (McCoy's 5a + 10 % FBS). After two passages, exponentially growing cells were harvested, counted, and resuspended to the appropriate density. A 100 µL aliquot of cell suspension (2 000 cells per well) was seeded into 96-well plates and incubated overnight (37 °C, 5 % CO2, 100 % relative humidity). Test compounds were dissolved in DMSO to prepare 10 mM stock solutions and serially diluted 1:3 in DMSO to generate nine concentration steps. Each DMSO solution was further diluted 200-fold into medium; 25 µL of the resulting solutions were added to the cell plates (final DMSO concentration […]). After 72 h incubation (37 °C, 5 % CO2), 50 µL of CellTiter-Glo reagent was added per well. Plates were shaken gently, incubated for 30 min at room temperature in the dark, and luminescence was read on an EnVision multimode reader. Percent inhibition was calculated as: Inhibition % = (1−As/Ac) × 100, [formula] where As = signal from compound-treated wells and Ac = signal from DMSO-only control wells. Concentration-response data were fitted in Excel with the XLfit add-in using the four-parameter logistic equation: Y = Bottom + (Top−Bottom)/[1+((IC50/X))^(∧)HillSlope], [formula] to derive the IC50 value for each compound. Table 2. IC50 of compounds"}, "topoisomerase I (Topo I)": {"molecular_target": "T1, topoisomerase I (Topo I) (Homo sapiens, UniProt P11387)", "T1 sequence (P11387 1-765)": "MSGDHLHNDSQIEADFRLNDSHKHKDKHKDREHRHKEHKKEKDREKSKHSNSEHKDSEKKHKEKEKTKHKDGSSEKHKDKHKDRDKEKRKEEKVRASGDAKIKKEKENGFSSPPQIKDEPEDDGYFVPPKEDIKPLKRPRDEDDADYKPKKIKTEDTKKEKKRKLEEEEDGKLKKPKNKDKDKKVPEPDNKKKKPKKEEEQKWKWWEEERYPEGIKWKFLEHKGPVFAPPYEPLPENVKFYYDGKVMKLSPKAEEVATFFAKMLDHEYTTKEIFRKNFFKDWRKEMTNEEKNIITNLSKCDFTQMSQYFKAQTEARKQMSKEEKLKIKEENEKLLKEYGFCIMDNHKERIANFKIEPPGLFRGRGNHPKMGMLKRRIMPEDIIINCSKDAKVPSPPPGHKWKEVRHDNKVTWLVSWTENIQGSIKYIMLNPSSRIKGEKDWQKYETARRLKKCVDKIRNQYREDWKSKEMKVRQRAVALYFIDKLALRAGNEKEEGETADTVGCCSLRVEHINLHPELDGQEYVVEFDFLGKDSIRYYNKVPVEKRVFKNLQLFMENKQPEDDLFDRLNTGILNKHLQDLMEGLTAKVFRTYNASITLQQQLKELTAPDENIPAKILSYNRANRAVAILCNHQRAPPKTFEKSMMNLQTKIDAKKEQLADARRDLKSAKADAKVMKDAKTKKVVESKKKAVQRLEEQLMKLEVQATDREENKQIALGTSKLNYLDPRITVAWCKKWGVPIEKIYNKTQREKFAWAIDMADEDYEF", "assay": "Topo I enzyme-inhibitory activity by agarose-gel electrophoresis (plasmid relaxation)", "format": "biochemical", "excerpt": "Test Example 1. Determination of Topo I Enzyme-Inhibitory Activity by Agarose-Gel Electrophoresis\nPrinciple: Type-I topoisomerase (Topo I) relaxes positive and negative supercoils by introducing transient single-strand breaks and forming reversible cleavage complexes (Topo I-DNA covalent complexes). Gel electrophoresis can resolve DNA species of identical molecular weight but different topology: supercoiled plasmid migrates fastest, whereas the nicked, relaxed form moves more slowly. Quantifying the decrease in supercoiled DNA therefore provides a direct measure of Topo I activity.\nExperimental Procedure: A 1× reaction buffer was prepared (20 mM Tris-HCl pH 7.5, 200 mM NaCl, 0.25 mM EDTA, 5 % (v/v) glycerol, 0.5 µg pNO1 plasmid substrate). Test compounds (5 % DMSO final) were added to the buffer, followed by Topo I enzyme (0.75 U per reaction). After gentle mixing, reactions were incubated at 37 °C for 30 min. Positive (enzyme + vehicle) and negative (no enzyme) controls were included in parallel. Reactions were terminated by adding STEB buffer and chloroform/iso-amyl alcohol (24:1, v/v), vortexed and centrifuged for 2 min. The aqueous (upper) phase was loaded onto a 1 % (w/v) agarose gel, electrophoresed for 1-2 h, stained with GelRed, and imaged under UV trans-illumination.\nData Analysis: Band intensities of supercoiled DNA were quantified with image-analysis software. Relaxation activity (%) was calculated as (Max-Sample)/ (Max-Min)*100%, where Max = intensity of the no-enzyme negative control, Min = intensity of the vehicle-only positive control, and Sample = intensity of the compound-treated lane. Dose-response data (compound concentration, X; relaxation activity %, Y) were fitted in Excel or GraphPad Prism 5.0 using the four-parameter logistic equation: Y=Bottom + (Top-Bottom)/(1+(IC50/X)[…]) to derive the IC50 value for each compound.\nTable 1. Compound-mediated inhibition of topoisomerase I (Topo I) enzymatic activity"}, "in vivo": {"assay": "in vivo", "conditions": "male, CD-1, mouse", "description": "Test Example 3. Pharmacokinetic Study for Determining Compound Concentrations in Mice by LC-MS/MS\nPrinciple: LC-MS/MS is used to quantify the plasma concentrations of the test article at successive time points, generating an in-vivo pharmacokinetic profile.\nProcedure: The test compound was dissolved in DMSO to prepare a 10 mg/mL stock solution. This stock was further diluted to 1 mg/mL with a vehicle consisting of 10 % DMSO + 10 % Solutol HS-15 + 80 % saline. Male CD-1 mice (JH Laboratory Animal Co., LTD) were employed; six animals were assigned per compound group. […] Serial blood samples (~50 µL whole blood, K2EDTA anticoagulant) were collected at 0.083, 0.25, 0.5, 1, 2, 4, 8 and 24 h (three mice per time point in a crossover design). Blood was centrifuged at 6 000 g for 5 min at 4 °C; plasma was harvested and stored at -70 °C until analysis. Plasma drug concentrations were determined by LC-MS/MS.\nCalibration Curve and QC Preparation: Working solutions were prepared by dilution with MeOH:H2O (1:1). For each calibration or QC level, 3 µL of working solution was spiked into 57 µL of blank mouse plasma.\nSample Processing: To 30 µL of plasma was added 200 µL of methanol containing the internal standard (propranolol, 40 ng mL^-1). After vortex-mixing for 1 min, the mixture was centrifuged at 12 000 rpm for 10 min. A 100 µL aliquot of the supernatant was transferred to a clean plate for injection.\nPharmacokinetic Analysis: Concentration-time data were analyzed with WinNonlin 8.2 using a non-compartmental approach to derive PK parameters including Cmax, Tmax, AUC and terminal elimination half-life (t1/2). AUC was calculated by the linear-up/log-down trapezoidal method. Table 3. Pk parameters of compounds"}, "[1]": {"conditions": "0.75 U Topo I, pNO1 plasmid, 37 °C, 30 min; compounds listed by group (Group A / Group B); read-out: inhibition of topoisomerase I (Topo I) enzymatic activity, IC50"}, "[2]": {"conditions": "read-out: inhibition of topoisomerase I (Topo I) enzymatic activity, IC50; 0.75 U Topo I, pNO1 plasmid, 37 °C, 30 min; compounds listed by group (Group A / Group B)"}},
  "note": "Where two headings read alike, the source gives them in different places.",
  "data": [
    {"compound": "CC[C@@]1(O)C(=O)OCc2c1cc1n(c2=O)Cc2c-1c(=O)c1cc(F)c(N)cc1n2-c1cc(OC)cc(C(C)C)c1", "note": "[Example 355]", "values": [
      {"measurement": "IC50", "setting": "HCT116 cells", "value": "< 20", "unit": "nM"},
      {"measurement": "IC50", "setting": "topoisomerase I (Topo I); [1]", "value": "200 to 500", "unit": "nM"}
    ]},
    {"compound": "CC[C@@]1(O)C(=O)OCc2c1cc1n(c2=O)Cc2c-1c(=O)c1cc(F)c(CO)cc1n2C1CCCC1", "note": "[Example 291, (S)-11-cyclopentyl-4-ethyl-8-fluoro-4-hydroxy-9-(hydroxymethyl)-1,12-dihydro-14H-pyrano[3,4:6,7]indolizino[2,1-b]quinoline-3,6,14(4H,11H)-trione]", "values": [
      {"measurement": "IC50", "setting": "topoisomerase I (Topo I); [1]", "value": "200 to 500", "unit": "nM"}
    ]},
    {"compound": "CC[C@@]1(O)C(=O)OCc2c1cc1n(c2=O)Cc2c-1c(=O)c1cc(F)ccc1n2CCN1CCCC1", "note": "[Example 193]", "values": [
      {"measurement": "IC50", "setting": "topoisomerase I (Topo I); [2]", "value": "200 to 500", "unit": "nM"}
    ]},
    {"compound": "CC[C@@]1(O)C(=O)OCc2c1cc1n(c2=O)Cc2c-1c(=O)c1cc(F)c(CC(C)O)cc1n2C1CCCC1", "note": "(stereo partly drawn) [Example 292, (4S)-11-cyclopentyl-4-ethyl-8-fluoro-4-hydroxy-9-(2-hydroxypropyl)-1,12-dihydro-14H-pyrano[3,4:6,7]indolizino[2,1-b]quinoline-3,6,14(4H,11H)-trione]", "values": [
      {"measurement": "IC50", "setting": "topoisomerase I (Topo I); [1]", "value": "200 to 500", "unit": "nM"}
    ]},
    {"compound": "CC[C@@]1(O)C(=O)OCc2c1cc1n(c2=O)Cc2c-1c(=O)c1cc3c(cc1n2CCN(C)C1CCCC1)OCO3", "note": "[Example 179]", "values": [
      {"measurement": "IC50", "setting": "topoisomerase I (Topo I); [2]", "value": "200 to 500", "unit": "nM"}
    ]},
    {"compound": "CC[C@@]1(O)C(=O)OCc2c1cc1n(c2=O)Cc2c-1c(=O)c1cc(F)ccc1n2[C@@H]1CCN(CC2CC2)C1", "note": "[Example 259, (S)-11-((R)-1-(cyclopropylmethyl)pyrrolidin-3-yl)-4-ethyl-8-fluoro-4-hydroxy-1H-pyrano[3',4':6,7]indolizino[2,1-b]quinoline-3,6,14(4H,11H,12H)-trione]", "values": [
      {"measurement": "IC50", "setting": "HCT116 cells", "value": "< 20", "unit": "nM"},
      {"measurement": "bioavailability", "setting": "in vivo", "value": 46.6, "unit": "%"},
      {"measurement": "AUC(0-t)", "setting": "in vivo; iv, 1 mg/kg", "value": 524, "unit": "ng·h/mL"},
      {"measurement": "Cmax", "setting": "in vivo; iv, 1 mg/kg", "value": 497, "unit": "ng/mL"},
      {"measurement": "clearance", "setting": "in vivo; iv, 1 mg/kg", "value": 31.8, "unit": "mL/min/kg"},
      {"measurement": "half-life", "setting": "in vivo; iv, 1 mg/kg", "value": 57.6, "unit": "min"},
      {"measurement": "AUC(0-t)", "setting": "in vivo; po, 10 mg/kg", "value": 2400, "unit": "ng·h/mL"},
      {"measurement": "Cmax", "setting": "in vivo; po, 10 mg/kg", "value": 1230, "unit": "ng/mL"},
      {"measurement": "Tmax", "setting": "in vivo; po, 10 mg/kg", "value": 49.8, "unit": "min"},
      {"measurement": "half-life", "setting": "in vivo; po, 10 mg/kg", "value": 374, "unit": "min"}
    ]}
  ]
}
